In US20150038438A1, “ANTIBACTERIAL COMPOUNDS AND METHODS FOR USE” (PTC THERAPEUTICS, INC., priority 2011, published 2015) one finds MIC data, which are given here for 3 compounds.

Holding throughout (experiment): Antibacterial activity, microbroth dilution method (MIC)
A general note: In broth dilution the organism is exposed to a series of concentrations in liquid medium.

The test system of assay [1] is control Gram-negative E. coli 25922 strain. Type of assay: cell-based, Escherichia coli. Particulars: Escherichia coli. The method, boiled down:
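Broth microdilution; endpoint = no macroscopic growth; value = lowest inhibiting concn, μg/mL.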

The test system of assay [2] is Gram-positive Staphylococcus aureus (S. aureus) 29213. Type of assay: cell-based. Particulars: Staphylococcus aureus, Gram-positive S. aureus 29213. The method, boiled down: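 In a microbroth dilution test, the minimum inhibitory concentration was defined as the lowest compound level preventing growth seen by eye, and was given in μg/mL.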
In assay [3] the test system is super sensitive Gram-negative Escherichia coli (E. coli) BAS849. Type of assay: cell-based. To be noted: Escherichia coli; super sensitive Gram-negative E. coli BAS849; microbroth dilution; read-out: MIC, E. coli BAS849. The method in brief: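 Microbroth dilution was used. MIC, in μg/mL, is the lowest drug concentration preventing macroscopically visible growth under the test conditions.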

Converted amounts (≈) assume the structure as drawn.

As for `CN(C)C1CCN(c2ccc3c(c2)NCCc2c-3[nH]c(=O)c(C(=O)O)c2O)C1.Cl` (stereo not drawn) [Cpd 95, 9-(3-(dimethylamino)pyrrolidin-1-yl)-4-hydroxy-2-oxo-2,5,6,7-tetrahydro-1H-benzo[b]pyrido[2,3-d]azepine-3-carboxylic acid hydrochloride], the MIC (in general, the lowest concentration found to suppress growth) in assay [1] was in the range of 3.5 to 12.5 µg/mL; in assay [2], 12.5 to 150 µg/mL; in assay [3], 3.5 to 12.5 µg/mL.
On to `CN1CCc2cc3c(cc21)CCCc1c(O)c(C(=O)O)c(=O)n(C)c1-3` [Cpd 135, 4-hydroxy-1,9-dimethyl-2-oxo-1,2,5,6,7,9,10,11-octahydropyrido[3′,2′:6,7]cyclohepta[1,2-f]indole-3-carboxylic acid], for which the minimum inhibitory concentration (MIC) was 12.5 to 150 µg/mL (≈ 36.7 to 441 µM) in assay [1], 3.5 to 12.5 µg/mL (≈ 10.3 to 36.7 µM) in assay [2] and < 1 µg/mL in assay [3].
Consider `CN(C)C1CCN(c2ccc3c(c2)C(O)CCc2c-3[nH]c(=O)c(C(=O)O)c2O)C1.Cl` (stereo not drawn) [Cpd 15, 9-(3-(dimethylamino)pyrrolidin-1-yl)-4,7-dihydroxy-2-oxo-2,5,6,7-tetrahydro-1H-benzo[6,7]cyclohepta[1,2-b]pyridine-3-carboxylic acid hydrochloride], for which the MIC in assay [1], in assay [2] and in assay [3] was 12.5 to 150 µg/mL throughout.
